The text below walks through data of US9181241B2, “Antagonists of chemokine receptors” (ChemoCentryx, Inc., priority 2012, dated 2015).

Molecules are shown by their SMILES.

The assay addresses T1, CCR1 (Homo sapiens, UniProt P32246).
T1 construct: host or cells: THP-1 cells or isolated human CD14+ monocytes
T1 sequence (P32246 1-355): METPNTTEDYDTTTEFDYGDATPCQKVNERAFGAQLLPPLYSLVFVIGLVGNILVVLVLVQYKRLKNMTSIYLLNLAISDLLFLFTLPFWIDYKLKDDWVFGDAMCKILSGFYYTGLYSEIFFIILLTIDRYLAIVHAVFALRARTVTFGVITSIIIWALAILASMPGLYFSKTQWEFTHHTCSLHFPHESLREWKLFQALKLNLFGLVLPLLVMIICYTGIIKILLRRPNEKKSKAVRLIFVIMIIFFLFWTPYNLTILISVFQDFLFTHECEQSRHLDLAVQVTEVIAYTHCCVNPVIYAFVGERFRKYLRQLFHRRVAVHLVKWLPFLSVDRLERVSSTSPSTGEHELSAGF
Briefly: Chemotaxis assay (CTX): inhibition of CCR1 mediated migration of THP-1 or monocyte cells. In kind it is cell-based. Particulars: class symbols; activity for either the chemotaxis assay or binding assay. How it is done:
THP-1 cells were obtained from ATCC (TIB-202) and cultured as a suspension in RPMI-1640 medium supplemented with 2 mM L-glutamine, 1.5 g/L sodium bicarbonate, 4.5 g/L glucose, 10 mM HEPES, 1 mM sodium pyruvate, 0.05% 2-mercaptoethanol and 10% FBS. Cells were grown under 5% CO2/95% air, 100% humidity at 37° C. and subcultured twice weekly at 1:5 (cells were cultured at a density range of 2×10^5 to 2×10^6 cells/mL) and harvested at 1×10^6 cells/mL. THP-1 cells express CCR1 and can be used in CCR1 binding and functional assays.
Monocytes were isolated from human buffy coats using the Miltenyi bead isolation system (Miltenyi, Auburn, Calif.). Briefly, following a Ficoll gradient separation to isolate peripheral blood mononuclear cells, cells were washed with PBS and the red blood cells lysed using standard procedures. Remaining cells were labeled with anti-CD14 antibodies coupled to magnetic beads (Miltenyi Biotech, Auburn, Calif.). Labeled cells were passed through AutoMACS (Miltenyi, Auburn, Calif.) and positive fraction collected. Monocytes express CCR1 and can be used in CCR1 binding and functional assays.
Chemotaxis assays were performed using 5 μm pore polycarbonate, polyvinylpyrrolidone-coated filters in 96-well chemotaxis chambers (Neuroprobe; Gaithersburg, Md.) using chemotaxis buffer (Hank's balanced salt solution (HBSS) and 1% FBS). CCR1 chemokine ligands (i.e., MIP-1α, CCL15/Leukotactin; R&D Systems; Minneapolis, Minn.) are use to evaluate compound mediated inhibition of CCR1 mediated migration. Other chemokines (i.e., SDF-1α; R&D Systems; Minneapolis, Minn.) are used as specificity controls. The lower chamber was loaded with 29 μl of chemokine (i.e., 0.1 nM CCL15/Leukotactin) and varying amounts of compound; the top chamber contained 100,000 THP-1 or monocyte cells in 20 μl. The chambers were incubated 1-2 hours at 37° C., and the number of cells in the lower chamber quantified either by direct cell counts in five high powered fields per well or by the CyQuant assay (Molecular Probes), a fluorescent dye method that measures nucleic acid content, and by measuring with a Spectrafluor Plus (Tecan). The computer program Prism from GraphPad, Inc. (San Diego, Calif.) was used to calculate IC50 values. IC50 values are those compound concentrations required to inhibit the number of cells responding to a CCR1 agonist by 50%.

With `Cc1nc(C(F)(F)F)cn1[C@@H](C)C(=O)N1CCCc2c1cnn2-c1ccc(Cl)cc1`, the IC50 (commonly the concentration needed to halve the response being measured) is below 1000 nM. `Cc1nc(C(F)(F)F)nn1C(C)C(=O)N1CCCc2c1cnn2-c1ccc(F)cc1` (stereo not drawn) had an IC50 below 1000 nM. In the case of `Cc1c(Cl)c(C(F)F)nn1CC(=O)N1CCCc2c1cnn2-c1ccc(F)cc1` it was below 1000 nM; in that of `O=C(Cc1ccc(C(F)(F)F)cc1Cl)N1CCCc2c1cnn2-c1ccc(F)cc1`, below 1000 nM.

`Cc1nc(C(F)(F)F)cn1[C@@H](C)C(=O)N1CCCc2c1cnn2-c1ccc(F)cc1` had an IC50 below 1000 nM.

In turn, `Nc1ncnc2c1c(-c1ncc[nH]1)nn2CC(=O)N1CCCc2c1cnn2-c1ccc(F)cc1` showed an IC50 below 1000 nM. In the case of `O=C(Cn1cnc(C(F)(F)F)n1)N1CCCc2c1cnn2-c1ccc(F)cc1` it was below 1000 nM; in that of `Cc1c(Cl)c(-c2ncc[nH]2)nn1CC(=O)N1CCCc2c1cnn2-c1ccc(F)cc1`, below 1000 nM; in that of `O=C(Cc1ccc(OC(F)(F)F)cc1)N1CCCc2c1cnn2-c1ccc(F)cc1`, below 1000 nM. Compound `Cc1c(Cl)c(S(C)(=O)=O)nn1CC(=O)N1CCCc2c1cnn2-c1ccc(F)cc1` registered an IC50 below 1000 nM.

For the compound `O=C(Cc1ccc(C(F)(F)F)cc1)N1CCCc2c1cnn2-c1ccc(F)cc1`, the IC50 is below 1000 nM. `Cc1cc(C(F)(F)F)nn1C(CC1CCOCC1)C(=O)N1CCCc2c1cnn2-c1ccc(F)cc1` (stereo not drawn) registered an IC50 below 1000 nM. In the case of `O=C(Cn1cc(C(F)(F)F)cn1)N1CCCc2c1cnn2-c1ccc(F)cc1` it was below 1000 nM; in that of `Cc1c(Cl)c(C(F)(F)F)nn1CC(=O)N1CCCc2c1cnn2-c1ccc(F)cc1`, below 1000 nM; in that of `O=C(Cc1ccc(Cl)cc1)N1CCCc2c1cnn2-c1ccc(F)cc1`, below 1000 nM. In the case of `O=C(Cn1ncc2c1CCCC2)N1CCCc2c1cnn2-c1ccc(F)cc1` it was below 1000 nM. In the case of `O=C(Cc1cccc(C(F)(F)F)c1)N1CCCc2c1cnn2-c1ccc(F)cc1` it was below 1000 nM; in that of `Cc1c(Cl)c(C(F)(F)F)nn1C(CO)C(=O)N1CCCc2c1cnn2-c1ccc(F)cc1` (stereo not drawn) [drawing 103], below 1000 nM; in that of `O=C(Cn1nc(C(F)(F)F)c2cccnc21)N1CCCc2c1cnn2-c1ccc(F)cc1`, below 1000 nM. In the case of `Cc1nc(C(F)(F)F)nn1C(C)C(=O)N1CCCc2c1cnn2-c1ccc(Cl)cc1` (stereo not drawn), the IC50 was below 1000 nM. `Cc1c(Cl)c(C2=NCCN2)nn1CC(=O)N1CCCc2c1cnn2-c1ccc(F)cc1` registered an IC50 below 1000 nM.

Compound `O=C(Cc1cccc(OC(F)(F)F)c1)N1CCCc2c1cnn2-c1ccc(F)cc1` had an IC50 of 1000 to 2500 nM. In the case of `Cc1c(Cl)c(C(C)(C)O)nn1CC(=O)N1CCCc2c1cnn2-c1ccc(F)cc1` it was below 1000 nM; in that of `Cc1nc(C(F)(F)F)nn1CC(=O)N1CCCc2c1cnn2-c1ccc(F)cc1`, below 1000 nM; in that of `Cc1c(Cl)c(C(F)(F)F)nn1C(C)C(=O)N1CCCc2c1cnn2-c1ccc(F)cc1` (stereo not drawn), below 1000 nM. `Cc1nc(C(F)(F)F)cn1CC(=O)N1CCCc2c1cnn2-c1ccc(F)cc1`: the IC50 was below 1000 nM. In the case of `CC[C@H](C(=O)N1CCCc2c1cnn2-c1ccc(F)cc1)n1nc(C(F)(F)F)c(Cl)c1C` it was below 1000 nM. In the case of `O=C(Cc1ccc(C(F)(F)F)c(Cl)c1)N1CCCc2c1cnn2-c1ccc(F)cc1` it was below 1000 nM; in that of `Cc1c(Cl)c(C(F)(F)F)cn1CC(=O)N1c2cnn(-c3ccc(F)cc3)c2CCC1C` (stereo not drawn), below 1000 nM.

Compound `CCC(C(=O)N1c2cnn(-c3ccc(F)cc3)c2CCC1C)n1nc(C(F)(F)F)cc1C` (stereo not drawn) yielded an IC50 below 1000 nM. The compound `Cc1nn(-c2ccc(F)cc2)c2c1N(C(=O)Cn1nc(C(F)(F)F)c(Cl)c1C)CCC2` returned an IC50 below 1000 nM. In the case of `CC(C)(C(=O)N1CCCc2c1cnn2-c1ccc(F)cc1)c1ccc(Cl)c(C(F)(F)F)c1` it was below 1000 nM; in that of `O=C(Cn1nc(C(F)(F)F)c2c1CCOC2)N1CCCc2c1cnn2-c1ccc(F)cc1`, below 1000 nM.

On to `O=C(Cc1nc(C(F)(F)F)c2ccccn12)N1CCCc2c1cnn2-c1ccc(F)cc1`, for which the IC50 is below 1000 nM. In the case of `O=C(Cc1nccc(C(F)(F)F)n1)N1CCCc2c1cnn2-c1ccc(F)cc1` it was 2500 to 12500 nM. Compound `Cc1c(-c2ncon2)cnn1CC(=O)N1CCCc2c1cnn2-c1ccc(F)cc1` gave an IC50 below 1000 nM. In the case of `O=C(Cc1nc2ccccc2o1)N1CCCc2c1cnn2-c1ccc(F)cc1` it was below 1000 nM. In the case of `Cc1c(Cl)c(C#N)nn1CC(=O)N1CCCc2c1cnn2-c1ccc(F)cc1` it was below 1000 nM; in that of `CC[C@@H](C(=O)N1CCCc2c1cnn2-c1ccc(F)cc1)n1nc(C(F)(F)F)c(Cl)c1C`, below 1000 nM; in that of `Cc1c(Cl)c(C(F)(F)F)nn1CC(=O)N1CCCc2c1cnn2-c1ccc(Cl)cc1`, below 1000 nM. In the case of `O=C(Cc1nc2ccccc2[nH]1)N1CCCc2c1cnn2-c1ccc(F)cc1` it was below 1000 nM.

For the compound `Cc1cc(C(F)(F)F)nn1C(CC(N)=O)C(=O)N1CCCc2c1cnn2-c1ccc(F)cc1` (stereo not drawn), the IC50 was below 1000 nM. In the case of `Cc1cc(C(F)(F)F)nn1CC(=O)N1CCCc2c1cnn2-c1ccc(F)cc1` it was below 1000 nM; in that of `Cc1c(Cl)c(C(F)(F)F)nn1C(C(=O)N1CCCc2c1cnn2-c1ccc(F)cc1)C(C)C` (stereo not drawn), below 1000 nM. `CCC(C(=O)N1CCCc2c1cnn2-c1ccc(F)cc1)n1cc(C(F)(F)F)nc1C` (stereo not drawn): the IC50 was below 1000 nM.

In turn, `O=C(Cn1nc(-c2ncc[nH]2)c2cccnc21)N1CCCc2c1cnn2-c1ccc(F)cc1` showed an IC50 below 1000 nM.

Turning to `Cc1c(Cl)c(C(F)(F)F)nn1CC(=O)N1CCCc2c1cnn2-c1ccc(F)cc1F`, the IC50 is below 1000 nM. Turning to `N#Cc1cnn(CC(=O)N2CCCc3c2cnn3-c2ccc(F)cc2)c1`, the IC50 lay within 2500 to 12500 nM.

For the compound `O=C(Cc1ccc(Cl)c(C(F)(F)F)c1)N1CCCc2c1cnn2-c1ccc(F)cc1`, the IC50 is below 1000 nM. In the case of `CC(C)(O)c1cnn(CC(=O)N2CCCc3c2cnn3-c2ccc(F)cc2)c1` it was 2500 to 12500 nM; in that of `Cc1cc(C(F)(F)F)nn1C(C)C(=O)N1CCCc2c1cnn2-c1ccc(F)cc1` (stereo not drawn), below 1000 nM. In the case of `Cc1c(Cl)cccc1CC(=O)N1CCCc2c1cnn2-c1ccc(F)cc1` it was above 12500 nM; in that of `Cc1c(Cl)cnn1CC(=O)N1CCCc2c1cnn2-c1ccc(F)cc1`, below 1000 nM; in that of `CCC(C(=O)N1CCCc2c1cnn2-c1ccc(F)cc1)n1nc(C(F)(F)F)c(Cl)c1C` (stereo not drawn), below 1000 nM. In the case of `O=C(Cn1nc(C(F)(F)F)c2c1CCC2)N1CCCc2c1cnn2-c1ccc(F)cc1` it was below 1000 nM.

With `O=C(Cn1nc(C(F)(F)F)c2c1CCCC2)N1CCCc2c1cnn2-c1ccc(F)cc1`, the IC50 is below 1000 nM. The compound `O=C(Cn1ncc2cccnc21)N1CCCc2c1cnn2-c1ccc(F)cc1` displayed a half-maximal inhibitory concentration (IC50) below 1000 nM. The compound `Cc1nn(CC(=O)N2CCCc3c2cnn3-c2ccc(F)cc2)c(-c2ncccn2)c1Cl` yielded an IC50 below 1000 nM. In the case of `O=C(Cn1ccc(C(F)(F)F)n1)N1CCCc2c1cnn2-c1ccc(F)cc1` it was below 1000 nM; in that of `O=C(Cn1cnc2ncccc21)N1CCCc2c1cnn2-c1ccc(F)cc1`, 2500 to 12500 nM. Turning to `O=C(Cn1cc(Cl)cn1)N1CCCc2c1cnn2-c1ccc(F)cc1`, the IC50 is below 1000 nM. In turn, `Cc1cc(C(F)(F)F)nn1C(CO)C(=O)N1CCCc2c1cnn2-c1ccc(F)cc1` (stereo not drawn) came in with an IC50 below 1000 nM. In the case of `COC(=O)C1CCc2c(cnn2-c2ccc(F)cc2)N1C(=O)Cn1nc(C(F)(F)F)c(Cl)c1C` (stereo not drawn) it was below 1000 nM. `O=C(Cn1cnc(C(F)(F)F)c1)N1CCCc2c1cnn2-c1ccc(F)cc1` displayed a half-maximal inhibitory concentration (IC50) below 1000 nM. In the case of `COCC1CCc2c(cnn2-c2ccc(F)cc2)N1C(=O)Cn1nc(C(F)(F)F)c(Cl)c1C` (stereo not drawn) it was below 1000 nM; in that of `CC(C(=O)N1CCCc2c1cnn2-c1ccc(F)cc1)c1ccc(Cl)c(C(F)(F)F)c1` (stereo not drawn), below 1000 nM. For the compound `CCC(C(=O)N1CCCc2c1cnn2-c1ccc(F)cc1)n1nc(C(C)(C)O)cc1C` (stereo not drawn), the IC50 was below 1000 nM. In the case of `O=C(Cn1cc(Cl)c(C(F)(F)F)n1)N1CCCc2c1cnn2-c1ccc(F)cc1` it was below 1000 nM. As to `Cc1nc(C(F)(F)F)cn1C(C)C(=O)N1CCCc2c1cnn2-c1ccc(F)cc1` (stereo not drawn), the IC50 was below 1000 nM.
